Read-outs that look alike come from different tables or passages of the source.

The test has as its target p300 HAT domain (residues 1287-1666) (Homo sapiens (Human), UniProt Q09472). The experiment in a line: p300 HAT SPA assay (scintillation proximity assay, acetylation of biotinylated H3(1-21) peptide). The class given is biochemical. The settings on record: average of at least 2 replicate titrations. On the procedure: In a typical experiment the p300 HAT inhibitory activity of the compounds described herein was determined in accordance with the following experimental method.
The expressed protein was purified by Ni2+ affinity, followed by anion exchange chromatography. Appropriate fractions were pooled and buffer exchanged into 20 mM Hepes pH 7.5, 150 mM NaCl, and 1 mM TCEP.
35 μL of the reaction volume was transferred to a 384-well streptavidin FlashPlate (PerkinElmer) using a Bravo liquid handler (Velocity 11) and incubated for 1.5 hr at RT. […] Data were analyzed in Genedata to determine inhibitor IC50 values.
On the technique in general: In a scintillation proximity assay essentially only radioactivity close to the scintillant gives light.

The mark [1] stands for this setting: p300 HAT domain, read-out: P300 HAT SPA IC50.

Sequence of p300 HAT domain (residues 1287-1666) (Q09472 1287-1666): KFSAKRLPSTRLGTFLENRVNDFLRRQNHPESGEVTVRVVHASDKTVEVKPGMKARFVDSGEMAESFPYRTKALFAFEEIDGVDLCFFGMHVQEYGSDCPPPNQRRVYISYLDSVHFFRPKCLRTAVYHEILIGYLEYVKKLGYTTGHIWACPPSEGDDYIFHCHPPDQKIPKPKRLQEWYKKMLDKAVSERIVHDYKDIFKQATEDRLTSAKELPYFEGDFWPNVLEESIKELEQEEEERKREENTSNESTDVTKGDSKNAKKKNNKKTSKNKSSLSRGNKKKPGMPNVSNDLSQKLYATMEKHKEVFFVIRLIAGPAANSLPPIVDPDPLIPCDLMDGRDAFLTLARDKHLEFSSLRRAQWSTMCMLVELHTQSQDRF

As to `O=C(c1c[nH]c2ccccc12)[C@@H](NCCc1ccc(-c2nn[nH]n2)cc1)c1ccccc1` (single isomer, unassigned) [185 Isomer 2], the IC50 (usually the midpoint of a concentration-inhibition curve) under setting [1] was greater than 30 µM.

On to `C[C@@H](NC(=O)c1ccc2c(C(=O)C(NCCc3ccc(C#N)cc3)c3ccccc3)c[nH]c2c1)C(F)(F)F` (single isomer, unassigned) [170 Isomer 1], for which the IC50 under setting [1] came to 0.296 µM.

Molecule `O=C(c1cn(CC(F)(F)F)c2ccccc12)C(NCCc1ccc(Cl)cc1)c1ccccc1` (single isomer, unassigned) [130 Isomer 1] returned an IC50 (P300 HAT SPA IC50, p300 HAT domain) greater than 60 µM.

For the molecule `N#Cc1ccc(CCNC(C(=O)c2c[nH]c3cc(N4CCCC4)ccc23)c2ccccc2)cc1` (single isomer, unassigned) [125 Isomer 2], under setting [1], the half-maximal inhibitory concentration (IC50) turned out to be 0.224 µM.

With `Cn1cc(CCNC(C(=O)c2c[nH]c3ccccc23)c2ccccc2)cn1` (single isomer, unassigned) [35 Isomer 2], under setting [1], the IC50 was 43.5 µM.

Take `O=C(c1c[nH]c2cc(-c3cccnc3)ccc12)C(NCCc1ccc(F)cc1)c1ccccc1` (single isomer, unassigned) [81 Isomer 1]: the IC50 under setting [1] turned out to be 12.3 µM.

Regarding `CC(CNC(C(=O)c1cnn2cc(C(=O)NC[C@@H](C)O)ccc12)c1ccccc1)c1ccc(C#N)cc1` (single isomer, unassigned) [70 Isomer 4], the IC50 under setting [1] was determined as 0.0218 µM.

Turning to `CCNC(=O)c1ccc2c(C(=O)C(NCC(C)c3ccc(C#N)cc3)c3ccccc3)c[nH]c2c1` (single isomer, unassigned) [75 Isomer 2], under setting [1], the IC50 is 0.343 µM.

Consider `CN(C)C(=O)c1ccc2c(C(=O)C(NCCc3ccc(Cl)cc3Cl)c3ccccc3)c[nH]c2c1` (single isomer, unassigned) [152 Isomer 1], for which the IC50 under setting [1] was greater than 30 µM.

With `Cn1cnc(-c2ccc3c(C(=O)[C@@H](NCCc4ccc(C(N)=O)cc4)c4ccccc4)c[nH]c3c2)c1` (single isomer, unassigned) [177 Isomer 1], under setting [1], the IC50 was greater than 5 µM.

Take `Cc1ncc(-c2ccc3c(C(=O)C(NCCc4ccc(Cl)cc4)c4ccccc4)c[nH]c3c2)[nH]1` (single isomer, unassigned) [110 Isomer 1]: the IC50 under setting [1] worked out at 2.01 µM.

For the molecule `COc1ccc2c(C(=O)C(NCCc3ccc(S(N)(=O)=O)cc3)c3ccccc3)c[nH]c2c1` (single isomer, unassigned) [51 Isomer 1], the IC50 under setting [1] is greater than 30 µM.

`CCNC(=O)c1ccc2c(C(=O)C(NCCc3ccc(C#N)cc3Cl)c3ccccc3)c[nH]c2c1` (single isomer, unassigned) [71 Isomer 1]: under setting [1], the IC50 was greater than 2 µM.

Regarding `Cc1cccc2c(C(=O)C(NC(C)Cc3ccc(Cl)cc3Cl)c3ccccc3)c[nH]c12` (single isomer, unassigned) [68 Isomer 3], under setting [1], the IC50 is greater than 30 µM.

`Cn1cc(-c2ccc3c(C(=O)C(NCCc4ccc(F)cc4)c4ccccc4)c[nH]c3c2)cn1` (single isomer, unassigned) [78 Isomer 1]: the IC50 under setting [1] turned out to be 12.9 µM.

For `CC(Cc1ccc(C(N)=O)cc1)NC(C(=O)c1c[nH]c2ccccc12)c1ccccc1` (single isomer, unassigned) [140 Isomer 3], under setting [1], the IC50 was greater than 5 µM.

For `CNC(=O)Cc1ccc(CCNC(C(=O)c2c[nH]c3ccccc23)c2ccccc2)cc1` (single isomer, unassigned) [136 Isomer 1], the IC50 under setting [1] is 8.69 µM.

In the case of `CN(C)CCNC(=O)c1cccc2c(C(=O)C(NCCc3ccc(Cl)cc3Cl)c3ccccc3)c[nH]c12` (single isomer, unassigned) [149 Isomer 2], under setting [1], the IC50 stood at 11.6 µM.

For `CN1CCC(c2ccc3c(C(=O)C(NCCc4ccc(C#N)cc4)c4ccccc4)c[nH]c3c2)CC1` (single isomer, unassigned) [64 Isomer 1], the IC50 under setting [1] was determined as 0.097 µM.

As to `N#Cc1ccc(CCNC(C(=O)c2c[nH]c3cc(C(=O)NCCN4CCCC4)ccc23)c2ccccc2)cc1` (single isomer, unassigned) [176 Isomer 2], the IC50 under setting [1] stood at 1.11 µM.

Consider `O=C(c1c[nH]c2cc(-n3ccnc3)ccc12)C(NCCc1ccc(F)cc1)c1ccccc1` (single isomer, unassigned) [117 Isomer 2], for which the IC50 under setting [1] was greater than 30 µM.

On to `O=C(c1c[nH]c2ccccc12)C(NCCc1ccc(Cl)nc1)c1ccccc1` (single isomer, unassigned) [52 Isomer 2], for which, under setting [1], the IC50 was found to be 2.83 µM.

On to `CCNC(=O)c1ccc2c(C(=O)C(C)NCCc3ccc(C#N)cc3)c[nH]c2c1` (single isomer, unassigned) [76 Isomer 2], for which, under setting [1], the IC50 is greater than 5 µM.

As to `Cn1cnc(-c2ccc3c(C(=O)C(NCCc4ccc(Cl)cc4)c4ccccc4)c[nH]c3c2)c1` (single isomer, unassigned) [106 Isomer 2], the IC50 under setting [1] came out at 0.283 µM.

For the molecule `CC(CNC(C(=O)c1c[nH]c2ccccc12)c1ccccc1)c1ccc(C(N)=O)cc1` (single isomer, unassigned) [141 Isomer 1], the IC50 under setting [1] stood at 0.872 µM.

As for `CN(C)C(=O)c1ccc2c(C(=O)C(NCCc3ccc(C#N)cc3)c3ccccc3)c[nH]c2c1` (single isomer, unassigned) [172 Isomer 2], the IC50 under setting [1] came to 0.657 µM.

With `Cn1cc(C(=O)C(NCCc2ccc(S(N)(=O)=O)cc2)c2ccccc2)c2ccccc21` (single isomer, unassigned) [17 Isomer 2], the IC50 under setting [1] was 1.85 µM.

For `CCn1cc(-c2ccc3c(C(=O)C(NCCc4ccc(Cl)cc4)c4ccccc4)c[nH]c3c2)cn1` (single isomer, unassigned) [86 Isomer 1], the IC50 under setting [1] was determined as 28.1 µM.

Regarding `CC(CNC(C(=O)c1cnn2cc(-c3cnn(C)c3)ccc12)c1ccccc1)c1ccc(C#N)cc1` (single isomer, unassigned) [102 Isomer 2], under setting [1], the IC50 was 0.239 µM.

Consider `CN(C)C(=O)Cc1ccc(CCNC(C(=O)c2c[nH]c3ccccc23)c2ccccc2)cc1` (single isomer, unassigned) [137 Isomer 1], for which the IC50 under setting [1] turned out to be 21.8 µM.

With `O=C(c1c[nH]c2ccccc12)C(NCCn1cnc2ccccc21)c1ccccc1` (single isomer, unassigned) [37 Isomer 2], the IC50 under setting [1] is greater than 60 µM.

Turning to `O=C(O)CCc1ccc2c(C(=O)C(NCCc3ccc(F)cc3)c3ccccc3)c[nH]c2c1` (single isomer, unassigned) [159 Isomer 1], the IC50 under setting [1] was found to be 25.2 µM.

As to `CC(NCCc1ccc(Cl)cc1)C(=O)c1c[nH]c2ccccc12` (single isomer, unassigned) [23 Isomer 2], the IC50 under setting [1] was greater than 60 µM.

On to `Cn1cc(-c2ccc3c(C(=O)C(NCCc4ccc(C#N)cc4)c4ccccc4)c[nH]c3c2)nn1` (single isomer, unassigned) [114 Isomer 1], for which, under setting [1], the IC50 was determined as 0.558 µM.

For the molecule `Cn1cc(-c2ccc3c(C(=O)[C@@H](NCCc4ccc(N)nc4)c4ccccc4)c[nH]c3c2)cn1` (single isomer, unassigned) [187 Isomer 1], the IC50 under setting [1] is greater than 5 µM.

On to `CN1CCC(Oc2ccc3c(C(=O)C(NCCc4ccc(C#N)cc4)c4ccccc4)c[nH]c3c2)CC1` (single isomer, unassigned) [126 Isomer 1], for which, under setting [1], the IC50 amounted to 2.84 µM.

Turning to `CC(CNC(C(=O)c1c[nH]c2ccccc12)c1ccccc1)c1ccc(C(N)=O)cc1` (single isomer, unassigned) [141 Isomer 2], under setting [1], the IC50 was greater than 5 µM.

In the case of `NS(=O)(=O)c1ccc(CCNC(C(=O)c2c[nH]c3c(C(F)(F)F)cccc23)c2ccccc2)cc1` (single isomer, unassigned) [50 Isomer 2], the IC50 under setting [1] is greater than 30 µM.

Regarding `CC(Cc1ccc(Cl)cc1)NC(C(=O)c1c[nH]c2ccccc12)c1ccccc1` (single isomer, unassigned) [27 Isomer 3], the IC50 under setting [1] was greater than 60 µM.
